Source: patent US9987237B2, “Methods and devices for using isoperillyl alcohol” (NEONC TECHNOLOGIES INC., priority 2010, dated 2018)

Experiments:
[1] = system: glucose-regulatory protein 78 (GRP-78) and the apoptosis marker CHOP; assay: Western blot for ER stress markers in U251 cells; type: cell-based, human; conditions: U251 TMZ-sensitive and TMZ-resistant (U251-TR1, U251-TR2) cells, 1.5 mM, 18 hours
Description: U251 TMZ-sensitive and TMZ-resistant (U251-TR1, U251-TR2) cells were treated with Sigma POH (1.5 mM) or GLP POH (1.5 mM) for 18 hours, then Western blot was performed.

Kras = assay: Western blot for Kras expression in U251 glioma cells; type: cell-based, human; conditions: 500 μM, 24 hours
Description: U251 glioma cells were treated with 500 μM Sigma POH, GLP POH or iso-POH (isoPOH65, isoPOH79) for 24 hours, then Western blot was performed.

LN229 human glioma cells = assay: MTT cytotoxicity assay, LN229 glioma cells; type: cell-based
Source text: (§1) J. of Immunological Methods 65: 55 63, 1983. The cytoxicity of the present compound may be studied by colony formation assay. […] Invasion inhibition may be studied by Boyden chambers. In this assay a layer of reconstituted basement membrane. […] Sigma POH is the POH purchased from Sigma Chemicals having a purity of about 96%. […] KWH0744 is the crude POH purchased from Wako having a purity of about 89.5%. […] In vitro cytotoxicity of iso-POH in temozolomide-sensitive or temozolomide-resistant cells were also studied. […] Similarly.

U251 human glioma cells = assay: MTT cytotoxicity assay, U251 glioma cells; type: cell-based
Source text: as §1

A172 human glioma cells = assay: MTT cytotoxicity assay, A172 glioma cells; type: cell-based
Source text: as §1

[2] = system: A172 temozolomide-resistant cells; assay: MTT cytotoxicity assay, A172 temozolomide-resistant cells; type: cell-based, human; conditions: 48 hours, FIG. 4B
Source text: (§2) J. of Immunological Methods 65: 55 63, 1983. The cytoxicity of the present compound may be studied by colony formation assay. […] Invasion inhibition may be studied by Boyden chambers. In this assay a layer of reconstituted basement membrane. […] In vitro cytotoxicity of iso-POH in temozolomide-sensitive or temozolomide-resistant cells were also studied. […] Similarly.

[3] = system: U251 temozolomide-resistant cells; assay: MTT cytotoxicity assay, U251 temozolomide-resistant cells; type: cell-based, human; conditions: 0 mM-3 mM
Source text: as §2

[4] = system: LN229 temozolomide-resistant cells; assay: MTT cytotoxicity assay, LN229 temozolomide-resistant cells; type: cell-based, human; conditions: 48 hours, FIG. 6B
Source text: as §2

U87 human glioma cells = assay: MTT cytotoxicity assay, U87 glioma cells; type: cell-based; conditions: U87 temozolomide sensitive, 48 hours, FIG. 7A
Source text: as §2

[5] = system: U87 temozolomide-resistant cells; assay: MTT cytotoxicity assay, U87 temozolomide-resistant cells; type: cell-based, human; conditions: 48 hours, FIG. 7B
Source text: as §2

SMILES | endoplasmic reticulum (ER) stress [1] | expression of glucose-regulatory protein 78 (GRP-78) [1] | expression of the apoptosis marker CHOP [1] | Kras expression (Kras) | cytotoxicity (MTT) (LN229 human glioma cells; LN229 human glioma cells, FIG. 1, versus POH of different purity) | cytotoxic response (MTT) (LN229 human glioma cells; LN229 temozolomide sensitive, 48 hours, FIG. 6A) | cytotoxicity (MTT) (U251 human glioma cells; TMZ sensitive U251, 24 hours, 0 mM-3 mM, FIG. 8A) | cytotoxic response (MTT) (U251 human glioma cells; U251 temozolomide-sensitive, 48 hours, FIG. 5A) | cytotoxicity (MTT) (U251 human glioma cells; U1251 human glioma cells, FIG. 2, versus POH of different purity) | cytotoxicity (MTT) (A172 human glioma cells; A172 human glioma cells, FIG. 3, versus POH of different purity) | cytotoxic response (MTT) (A172 human glioma cells; A172 temozolomide-sensitive, 48 hours, FIG. 4A, compared to GLP POH and Sigma POH) | cytotoxic response (MTT) [2] | cytotoxicity (MTT) ([3]; U251-TR1, 24 hours, FIG. 8C) | cytotoxicity (MTT) ([3]; U251-TR2, 24 hours, FIG. 8B) | cytotoxic response (MTT) [4] | cytotoxic response (MTT) (U87 human glioma cells) | cytotoxic response (MTT) [5]
C=C(C)[C@@H]1CC=C(CO)CC1 [Sigma POH, perillyl alcohol] | increased endoplasmic reticulum (ER) stress | increased expression | increased expression | decreased Kras expression | – | – | – | – | – | – | – | – | – | – | – | – | –
CC(C)=C1CC=C(CO)CC1 [iso-POH, (4-isopropylidene cyclohex-1-enyl)methanol] | increased ER stress | – | – | decreased Kras expression | much better cytotoxicity than POH with different purity | same response | greater cytotoxicity | greatest response | much better cytotoxicity than POH with different purity | much better cytotoxicity than POH with different purity | greatest cytotoxic response | response pattern was also seen | greater cytotoxicity | greater cytotoxicity | same response | greatest response | greatest response
